Assay results from article PMC9223397 (International Journal of Molecular Sciences, 2022).
Like-named read-outs stand apart in the source and are kept apart here.

Tests used:
[1] = Plasma levels, SOD1G93A model; type: in vivo, Transgenic SOD1^G93A male mouse; details: SOD1G93A transgenic, ip
Procedure: (§1) The compounds were dissolved in 0.5% hydroxypropyl-methylcellulose (HPMC; H7509, Sigma-Aldrich) in distilled water and were administered by intraperitoneal (i.p.) route twice daily (bid) in a volume of 10 mL/kg. Administrations were given from 30 min after rhizotomy surgery until 42 days post-injury (dpi), the end of the study; in the SOD1^G93A study, treatments were given from 8 to 16 weeks of age (see Figure 6).
Plasma levels were determined in the two in vivo models evaluated to be able to associate the pharmacological activity with the levels present in plasma. In the rhizotomy model, the plasma levels were evaluated at Day 42 after surgery and at 15 min after compound administration (0.5 and 5 mg/kg i.p.). […] Plasma samples were assayed by ultraperformance liquid chromatography−triple quadrupole mass spectrometry (UPLC-MS/MS) after plasma protein precipitation. Results are expressed as mean ± standard deviation (n = 8).

[2] = test system: spinal MNs after L4-L5 rhizotomy; assay: MN survival after L4-L5 rhizotomy (cresyl violet MN counts); type: in vivo, female mice (B6SJL)
Procedure: Surgeries were performed on three-month-old mice under anesthesia with ketamine-xylazine (100–10 mg/kg i.p.) as previously described. Briefly, the L4-L5 spinal roots were exposed by a small laminectomy on the right side. Afterwards, roots were cut at the exit from the intervertebral foramina, and the root stumps were separated. Mice were cared for until recovery in a warm environment. Analgesia was provided with buprenorphine (0.1 mg/kg) for the next 48 h post-surgery.
as §1
(§2) At the end of follow-up (42 dpi for rhizotomy and 16 weeks of age for ALS mice; Figure 6), the animals were deeply anesthetized and transcardially perfused with 4% PFA in PBS. The lumbar spinal cord and the TA muscle were harvested and cryopreserved in 30% sucrose solution in PB. The spinal cords were serially cut in 20 µm thick transverse sections with a cryostat (Leica, Mannheim, Germany). For MN counting, L4-L5 spinal cord sections separated 100 µm were stained for 3 h with an acidified solution of 3.1 mM cresyl violet. MNs were identified by their localization in the lateral ventral horn of the spinal cord and were counted following strict size and morphological criteria: only MNs with a diameter larger than 20 µm, polygonal shape, and prominent nucleoli were counted.

SOD1^G93A mice [3] = assay: Motor nerve conduction tests in SOD1G93A mice; type: in vivo, SOD1^G93A male mice
Procedure: as §1
Motor nerve conduction tests were performed before the surgery to obtain baseline values and at the end of the follow-up in the rhizotomy model, whereas the SOD1^G93A mice were evaluated at 8 weeks (prior to starting drug administration) and then every 2–3 weeks until the end point at 16 weeks of age (Figure 6). The sciatic nerve was stimulated by means of single pulses of 50 µs duration delivered from a Grass S88 stimulator through needle electrodes placed at the sciatic notch. The CMAP was recorded from TA, GM, and plantar interossei muscles with microneedle electrodes, with the active electrode being placed in the muscle and the reference at the fourth toe. […] The mice were anesthetized with pentobarbital (50 mg/kg i.p.), and their body temperature was maintained by means of a thermostatic warming pad.

SOD1^G93A mice [4] = assay: Rotarod test in SOD1G93A mice; type: in vivo, SOD1^G93A male mice; details: 5 mg/kg i.p.; at 15 weeks of age
Procedure: as §1
A rotarod test was performed to evaluate motor coordination and strength. The time that each animal remained on the rotating rod at a speed of 14 rpm was measured for five trials per mouse, and the longest time until falling was recorded; 180 s was chosen as the cut-off time. The test was performed weekly from 8 to 16 weeks of age in SOD1^G93A and WT mice, and disease onset was determined as the first week when each mouse was unable to keep walking for 180 s on the rod.

[5] = test system: spinal α-MNs in SOD1^G93A mice; assay: Spinal MN counts in SOD1G93A mice; type: in vivo, SOD1^G93A male mice; details: 5 mg/kg i.p.; 16 weeks of age; untreated 6.9 ± 0.5, WT 25.3 ± 0.5
Procedure: as §1, §2

[6] = test system: microglia and astrocytes in ventral horn of SOD1^G93A mice; assay: Glial reactivity in SOD1G93A mice (Iba1, GFAP); type: in vivo, SOD1^G93A male mice; details: 5 mg/kg i.p.; 16 weeks of age
Procedure: as §1
For glial cells immunofluorescence, other lumbar spinal cord sections were blocked with 10% normal donkey serum and incubated overnight with primary antibodies rabbit anti-Iba1 (1:500; 019–19741, Wako) and rat anti-GFAP (1:500; 13-0300, Invitrogen) to label microglia and astroglia, respectively. After several washes, sections were incubated with secondary antibodies Alexa Fluor 488-donkey anti-rat (1:500; A-21208, Invitrogen) or Alexa Fluor 594 donkey anti-rabbit (1:500; A21207, Invitrogen). Finally, sides were mounted with Fluoromount-G. To quantify glial cell reactivity, images of the ventral horn were acquired with an epifluorescence microscope (Nikon Eclipse Ni, Japan) using the same conditions for each analyzed marker. After defining a threshold for background correction, the integrated density of GFAP or Iba1 labeling was measured using ImageJ software.

[7] = Body weight in SOD1G93A mice; type: in vivo, SOD1^G93A male mice; details: 5 mg/kg i.p., 8 to 16 weeks of age
Procedure: as §1

[8] = 0.5 mg/kg bid i.p., 42 dpi, not significant
[9] = 5 mg/kg/bid i.p. 6 weeks, 42 days after injury, untreated injured 6.8 ± 0.3
[10] = 5 mg/kg i.p. from 8 weeks of age, early (11 weeks) and mid (13 weeks) stages

Row | SMILES | concentration at 15 min ([1]; plasma, SOD1G93A male mouse, 5 mg/kg i.p., after 8 weeks of administration, read-out: Plasma Concentration 15 min Post-Administration, Mean) | Number of spinal MNs ± SEM, ipsilateral ventral horn [2, 8] | Number of spinal MNs ± SEM, ipsilateral ventral horn [2, 9] | CMAP amplitude of TA and plantar muscles vs vehicle (SOD1^G93A mice [3]; [10]) | CMAP amplitude of TA and plantar muscles vs vehicle (SOD1^G93A mice [3]; 5 mg/kg i.p., at 16 weeks of age) | Rotarod performance vs vehicle (SOD1^G93A mice [4]) | Number of surviving spinal α-MNs [5] | Astrocyte activation (GFAP) [6] | Microglial activation (Iba1) [6] | Body weight vs vehicle group [7] | concentration at 15 min ([1]; male, mouse, in vivo, 5 mg/kg)
1 | C[C@@H]1OC2(CCN(Cc3ccc(F)cc3)CC2)CN(C)C1=O [EST79232] | 425 ng/mL | 7.6 ± 0.9 | 8.6 ± 0.6 | significantly prevented the decline in amplitude of the CMAP of TA and plantar muscles | effect was reduced to levels found in the vehicle group | significant improvement | 10.8 ± 1.1 MNs per section | significant decrease in astrocyte activation | did not reduce microglial activation | did not cause differences in body weight | 
2 | CCN1CC2(CCN(Cc3ccc(C#N)c(F)c3)CC2)O[C@@H](C)C1=O [EST79376] |  | 7.4 ± 0.7 | 8.7 ± 0.5 | only showed significant preservation of the CMAP amplitude in the plantar muscle at 13 weeks of age |  |  | 8.5 ± 1.0 MNs per section | significant decrease in astrocyte activation | did not reduce microglial activation |  | 692 ng/mL
